In patent publication US8314253B2, “Bridged tetrahydronaphthalene derivatives” (Actelion Pharmaceuticals Ltd., priority 2008, dated 2012):

What was measured:
[1] = tested on: human Cav3.1 Cav3.2 or Cav3.3 channel; experiment: In vitro assay T channel (FLIPR, Ca2+-induced fluorescence); assay type: cell-based; conditions: HEK293 cells expressing human Cav3.1 Cav3.2 or Cav3.3; 10 mM Ca2+; determined up to 10 μM; read-out: T channel antagonistic activity IC50
Description: Human embryonic kidney (HEK293) cells expressing the human Cav3.1 Cav3.2 or Cav3.3 channel, respectively, are grown in culture medium (DMEM containing 10% heat-inactivated fetal calf serum (FCS), 100 U/ml penicillin, 100 μg/ml streptomycin and 1 mg/ml G418). The cells are seeded at 20.000 cells/well into 384-well black clear bottom sterile plates (poly-L-lysine-coated, Becton Dickinson). The seeded plates are incubated overnight at 37° C. in 5% CO2. The Ca^2+ solution is prepared as 100 mM stock solution in 100 mM tetraethylammoniumchloride (TEA-chloride), 50 mM HEPES, 2.5 mM CaCl2, 5 mM KCl, 1 mM MgCl2, adjusted to pH 7.2 with TEA-hydroxide, for use in the assay at a final concentration of 10 mM. […] Fluorescence is measured for each well at 2 second intervals for 8 minutes, and the area under the curve of each fluorescence peak is compared to the area of the fluorescence peak induced by 10 mM Ca^2+ with vehicle in place of antagonist.

isolated mouse hearts = experiment: Effect on isolated hearts according to the Langendorff method (Lgdff)
Description: The compounds were tested for their potential to reduce blood pressure and their effect on the contractility of the heart muscle. EC50 values on isolated mouse hearts were determined according to Literature (Doring H J., The isolated perfused heart according to Langendorff technique—function—application, Physiol. Bohemoslov. 1990, 39(6), 481-504; Kligfield P, Homer H, Brachfeld N., A model of graded ischemia in the isolated perfused rat heart, J. Appl. Physiol. 1976 June, 40(6), 1004-8).
15 example compounds have been measured using the procedure described above for the Langendorff experiment.

CC(C)C(=O)OC1(CCN(C)CCCc2nc3ccccc3[nH]2)CC2CCCC1c1ccccc12 [Example 11A, Isobutyric acid (1S,8S,12S)-12-(2-{[3-(1H-Benzoimidazol-2-yl)-propyl]-methyl-amino}-ethyl)-tricyclo[6.3.2.0^2,7]trideca-2,4,6-trien-12-yl ester or isobutyric acid (1R,8R,12R)-12-(2-{[3-(1H-benzoimidazol-2-yl)-propyl]-methyl-amino}-ethyl)-tricyclo[6.3.2.0^2,7]trideca-2,4,6-trien-12-yl ester]
IC50 [1]: 1050 nM
EC50 (isolated mouse hearts): 22 nM

COc1ccc(C)c2[nH]c(CCCN(C)CCC3(O)CC4CCCC3c3ccccc34)nc12 (single isomer, unassigned) [Example 14, (1S,8S,12S)-12-(2-{[3-(4-Methoxy-7-methyl-1H-benzoimidazol-2-yl)-propyl]-methyl-amino}-ethyl)-tricyclo[6.3.2.0^2,7]trideca-2,4,6-trien-12-ol or (1R,8R,12R)-12-(2-{[3-(4-methoxy-7-methyl-1H-benzoimidazol-2-yl)-propyl]-methyl-amino}-ethyl)-tricyclo[6.3.2.0^2,7]trideca-2,4,6-trien-12-ol]
IC50 [1]: 736 nM

CC(C)C(=O)O[C@@]1(CCN2CCCC(c3nc4ccccc4[nH]3)C2)C[C@H]2CC[C@@H]1c1ccccc12 (relative stereo) [Example 7A, Isobutyric acid (1R*,8R*,9R*)-9-{2-[(3RS)-3-(1H-benzoimidazol-2-yl)-piperidin-1-yl]-ethyl}-tricyclo[6.2.2.0^2,7]dodeca-2,4,6-trien-9-yl ester]
IC50 [1]: 1110 nM

COc1cccc2[nH]c(CCCN(C)CC[C@@]3(OC(=O)CC(F)(F)F)C[C@@H]4CCC[C@H]3c3ccccc34)nc12 [Example 13B, 3,3,3-Trifluoro-propionic acid (1S,8S,12S)-12-(2-{[3-(4-methoxy-1H-benzoimidazol-2-yl)-propyl]-methyl-amino}-ethyl)-tricyclo[6.3.2.02,7]trideca-2,4,6-trien-12-yl ester or 3,3,3-trifluoro-propionic acid (1R,8R,12R)-12-(2-{[3-(4-methoxy-1H-benzoimidazol-2-yl)-propyl]-methyl-amino}-ethyl)-tricyclo[6.3.2.02,7]trideca-2,4,6-trien-12-yl ester]
IC50 [1]: 653 nM
EC50 (isolated mouse hearts): 6 nM

CC(C)C(=O)O[C@@]1(CCN2CCC(c3ccccc3)(c3nc4ccccc4[nH]3)CC2)C[C@H]2CC[C@@H]1c1ccccc12 (relative stereo) [Example 8A, rac-Isobutyric acid (1R*,8R*,9R*)-9-{2-[4-(1H-benzoimidazol-2-yl)-4-phenyl-piperidin-1-yl]-ethyl}-tricyclo[6.2.2.0^2,7]dodeca-2,4,6-trien-9-yl ester]
IC50 [1]: 6100 nM

CO[C@@]1(CCN(C)CCCc2nc3ccccc3[nH]2)C[C@H]2CC[C@@H]1c1ccccc12 (relative stereo) [Example 4, rac-(1R*,8R*,9R*)-[3-(1H-Benzoimidazol-2-yl)-propyl]-[2-(9-methoxy-tricyclo[6.2.2.0^2,7]dodeca-2,4,6-trien-9-yl)-ethyl]-methyl-amine]
IC50 [1]: 1220 nM

CN(CCCc1nc2ccccc2[nH]1)CCC1(O)CC2CCCC1c1ccccc12 (single isomer, unassigned) [Example 12, (1S,8S,12S)-12-(2-{[3-(1H-Benzoimidazol-2-yl)-propyl]-methyl-amino}-ethyl)-tricyclo[6.3.2.0^2,7]trideca-2,4,6-trien-12-ol or (1R,8R,12R)-12-(2-{[3-(1H-benzoimidazol-2-yl)-propyl]-methyl-amino}-ethyl)-tricyclo[6.3.2.0^2,7]trideca-2,4,6-trien-12-ol]
IC50 [1]: 631 nM

CC(C)C(=O)O[C@@]1(CCN(C)CCCc2nc3ccccc3[nH]2)C[C@H]2CC[C@@H]1c1ccccc12 (relative stereo) [Example 1B, rac-Isobutyric acid (1R*,8R*,9R*)-9-(2-{[3-(1H-benzoimidazol-2-yl)-propyl]-methyl-amino}-ethyl)-tricyclo[6.2.2.0^2,7]dodeca-2,4,6-trien-9-yl ester]
IC50 [1]: 2070 nM
EC50 (isolated mouse hearts): 42 nM

O[C@@]1(CCN2CCC(c3nc4ccccc4[nH]3)CC2)C[C@H]2CC[C@@H]1c1ccccc12 (relative stereo) [Example 6, rac-(1R*,8R*,9R*)-9-{2-[4-(1H-Benzoimidazol-2-yl)-piperidin-1-yl]-ethyl}-tricyclo[6.2.2.0^2,7]dodeca-2,4,6-trien-9-ol]
IC50 [1]: 1360 nM

CC(C)C(=O)O[C@@]1(CCN(C)CCCc2nc3ccccc3[nH]2)C[C@H]2CCC[C@@H]1c1ccccc12 (relative stereo) [Example 10B, rac-Isobutyric acid (1R*,8R*,12R*)-12-(2-{[3-(1H-benzoimidazol-2-yl)-propyl]-methyl-amino}-ethyl)-tricyclo[6.3.2.0^2,7]trideca-2,4,6-trien-12-yl ester]
IC50 [1]: 1310 nM

COc1cccc2[nH]c(CCCN(C)CCC3(OC(=O)C(C)C)CC4CCCC3c3ccccc34)nc12 [Example 13A, Isobutyric acid (1S,8S,12S)-12-(2-{[3-(4-Methoxy-1H-benzoimidazol-2-yl)-propyl]-methyl-amino}-ethyl)-tricyclo[6.3.2.0^2,7]trideca-2,4,6-trien-12-yl ester or isobutyric acid (1R,8R,12R)-12-(2-{[3-(4-methoxy-1H-benzoimidazol-2-yl)-propyl]-methyl-amino}-ethyl)-tricyclo[6.3.2.0^2,7]trideca-2,4,6-trien-12-yl ester]
IC50 [1]: 544 nM

CC(C)C(=O)O[C@]1(CCN(C)CCCc2nc3ccccc3[nH]2)C[C@H]2CC[C@@H]1c1ccccc12 (relative stereo) [Example 5A, rac-Isobutyric acid (1R*,8R*,9S*)-9-(2-{[3-(1H-benzoimidazol-2-yl)-propyl]-methyl-amino}-ethyl)-tricyclo[6.2.2.0^2,7]dodeca-2,4,6-trien-9-yl ester]
IC50 [1]: 5180 nM

O[C@@]1(CCN2CCCC(c3nc4ccccc4[nH]3)C2)C[C@H]2CC[C@@H]1c1ccccc12 (relative stereo) [Example 7, (1R*,8R*,9R*)-9-{2-[(3RS)-3-(1H-Benzoimidazol-2-yl)-piperidin-1-yl]-ethyl}-tricyclo[6.2.2.0^2,7]dodeca-2,4,6-trien-9-ol]
IC50 [1]: 2260 nM

CC(C)C(=O)O[C@@]1(CCN(C)CCCc2nc3ccccc3[nH]2)C[C@H]2CC[C@@H]1c1cc(F)c(F)cc12 (relative stereo) [Example 9A, rac-Isobutyric acid (1R*,8R*,9R*)-9-(2-{[3-(1H-benzoimidazol-2-yl)-propyl]-methyl-amino}-ethyl)-4,5-difluoro-tricyclo[6.2.2.0^2,7]dodeca-2,4,6-trien-9-yl ester]
IC50 [1]: 1400 nM
EC50 (isolated mouse hearts): 30 nM

COc1cccc2[nH]c(CCCN(C)CCC3(O)CC4CCCC3c3ccccc34)nc12 (single isomer, unassigned) [Example 13, (1S,8S,12S)-12-(2-{[3-(4-Methoxy-1H-benzoimidazol-2-yl)-propyl]-methyl-amino}-ethyl)-tricyclo[6.3.2.0^2,7]trideca-2,4,6-trien-12-ol or (1R,8R,12R)-12-(2-{[3-(4-methoxy-1H-benzoimidazol-2-yl)-propyl]-methyl-amino}-ethyl)-tricyclo[6.3.2.0^2,7]trideca-2,4,6-trien-12-ol]
IC50 [1]: 1220 nM

CN(CCCc1nc2ccccc2[nH]1)CC[C@]1(OC(=O)C2CC2)C[C@H]2CC[C@@H]1c1ccccc12 (relative stereo) [Example 1C, rac-Cyclopropanecarboxylic acid (1R*,8R*,9R*)-9-(2-{[3-(1H-benzoimidazol-2-yl)-propyl]-methyl-amino}-ethyl)-tricyclo[6.2.2.0^2,7]dodeca-2,4,6-trien-9-yl ester]
IC50 [1]: 969 nM
